{
  "source": "ChEMBL document CHEMBL3102727",
  "about": "“Conformationally constrained ortho-anilino diaryl ureas: discovery of 1-(2-(1'-neopentylspiro[indoline-3,4'-piperidine]-1-yl)phenyl)-3-(4-(trifluoromethoxy)phenyl)urea, a potent, selective, and bioavailable P2Y1 antagonist” (J Med Chem, 2013)",
  "key": {"P2Y purinoceptor 1 [1]": {"biological_target": "T1, P2Y purinoceptor 1 (Homo sapiens, UniProt P47900)", "T1 sequence (P47900 whole entry)": "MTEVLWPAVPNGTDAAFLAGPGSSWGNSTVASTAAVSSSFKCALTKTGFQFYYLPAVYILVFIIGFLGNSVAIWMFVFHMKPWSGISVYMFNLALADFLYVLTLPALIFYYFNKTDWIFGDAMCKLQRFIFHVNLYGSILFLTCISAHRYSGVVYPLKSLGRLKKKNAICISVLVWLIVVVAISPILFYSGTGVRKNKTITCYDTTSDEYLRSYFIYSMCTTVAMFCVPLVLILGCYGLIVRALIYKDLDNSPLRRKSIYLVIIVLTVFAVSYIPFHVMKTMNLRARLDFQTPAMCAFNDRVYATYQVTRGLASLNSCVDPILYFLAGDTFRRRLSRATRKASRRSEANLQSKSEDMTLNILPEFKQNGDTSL", "test": "Displacement of [33P]-2MeS-ADP from human P2Y1 receptor expressed in HEK293 cells after 1 hr by scintillation counting analysis", "type": "cell-based"}, "[2]": {"test": "Aqueous solubility of the amorphous form of compound in phosphate buffer at pH 6.5", "type": "physicochemical"}, "[3]": {"test": "Partition coefficient, log P of the compound at pH 7 by reversed-phase HPLC method", "type": "physicochemical", "conditions": "octanol/water"}, "P2Y purinoceptor 1 [4]": {"biological_target": "T1, P2Y purinoceptor 1", "test": "Antagonist activity at P2Y1 receptor in washed human platelets assessed as 1 uM 2-methylthio-ADP-induced calcium flux by FLIPR assay", "type": "functional"}, "[5]": {"test": "Aqueous solubility of the of partial crystalline form of compound in phosphate buffer at pH 6.5", "type": "physicochemical"}},
  "data": [
    {"compound": "CC1(C)CN(c2ncccc2NC(=O)Nc2ccc(OC(F)(F)F)cc2)c2ccccc21", "values": [
      {"measurement": "Ki", "setting": "P2Y purinoceptor 1 [1]", "result": 20.3, "unit": "nM"}
    ]},
    {"compound": "CC1CCN(c2ccccc2NC(=O)Nc2ccc(OC(F)(F)F)cc2)c2ccccc21", "note": "(configuration not stated)", "values": [
      {"measurement": "Ki", "setting": "P2Y purinoceptor 1 [1]", "result": 29.5, "unit": "nM"}
    ]},
    {"compound": "CN1CCC2(CC1)CN(c1ccccc1NC(=O)Nc1ccc(OC(F)(F)F)cc1)c1ccccc12", "values": [
      {"measurement": "solubility", "setting": "[2]", "result": 100, "unit": "µg/mL"},
      {"measurement": "Ki", "setting": "P2Y purinoceptor 1 [1]", "result": 690, "unit": "nM"},
      {"measurement": "logP", "setting": "[3]", "result": 4.6}
    ]},
    {"compound": "O=C(Nc1ccc(OC(F)(F)F)cc1)Nc1ccccc1N1CC2(CCN(C(=O)OCc3ccccc3)CC2)c2ccccc21", "values": [
      {"measurement": "IC50", "setting": "P2Y purinoceptor 1 [4]", "result": 5.9, "unit": "nM"},
      {"measurement": "Ki", "setting": "P2Y purinoceptor 1 [1]", "result": 36.6, "unit": "nM"}
    ]},
    {"compound": "O=C(Nc1ccc(OC(F)(F)F)cc1)Nc1ccccc1N1CCCc2ccccc21", "values": [
      {"measurement": "Ki", "setting": "P2Y purinoceptor 1 [1]", "result": 36.5, "unit": "nM"}
    ]},
    {"compound": "CC(C)(C)CN1CCC2(C1)CN(c1ccccc1NC(=O)Nc1ccc(OC(F)(F)F)cc1)c1ccccc12", "note": "(configuration not stated)", "values": [
      {"measurement": "solubility", "setting": "[2]", "result": 1, "unit": "µg/mL"},
      {"measurement": "Ki", "setting": "P2Y purinoceptor 1 [1]", "result": 5.8, "unit": "nM"},
      {"measurement": "logP", "setting": "[3]", "result": "> 6.2"}
    ]},
    {"compound": "O=C(Nc1ccc(OC(F)(F)F)cc1)Nc1ccccc1N1CC2(CCCCC2)c2ccccc21", "values": [
      {"measurement": "IC50", "setting": "P2Y purinoceptor 1 [4]", "result": 2.2, "unit": "nM"},
      {"measurement": "solubility", "setting": "[2]", "result": "< 1", "unit": "µg/mL"},
      {"measurement": "Ki", "setting": "P2Y purinoceptor 1 [1]", "result": 5.9, "unit": "nM"}
    ]},
    {"compound": "CC(C)NC(=O)N1CCC2(CC1)CN(c1ccccc1NC(=O)Nc1ccc(OC(F)(F)F)cc1)c1ccccc12", "values": [
      {"measurement": "Ki", "setting": "P2Y purinoceptor 1 [1]", "result": 200, "unit": "nM"},
      {"measurement": "solubility", "setting": "[5]", "result": 1, "unit": "µg/mL"},
      {"measurement": "logP", "setting": "[3]", "result": 5.7}
    ]},
    {"compound": "CC1(C)CCN(c2ncccc2NC(=O)Nc2ccc(OC(F)(F)F)cc2)c2ccccc21", "values": [
      {"measurement": "Ki", "setting": "P2Y purinoceptor 1 [1]", "result": 16, "unit": "nM"}
    ]},
    {"compound": "COCCN1CCC2(CC1)CN(c1ccccc1NC(=O)Nc1ccc(OC(F)(F)F)cc1)c1ccccc12", "values": [
      {"measurement": "solubility", "setting": "[2]", "result": 66, "unit": "µg/mL"},
      {"measurement": "Ki", "setting": "P2Y purinoceptor 1 [1]", "result": 390, "unit": "nM"},
      {"measurement": "logP", "setting": "[3]", "result": 5.1}
    ]},
    {"compound": "O=C(Nc1ccc(OC(F)(F)F)cc1)Nc1ccccc1N1CCOc2ccccc21", "values": [
      {"measurement": "Ki", "setting": "P2Y purinoceptor 1 [1]", "result": 65, "unit": "nM"},
      {"measurement": "logP", "setting": "[3]", "result": 5.7}
    ]},
    {"compound": "O=C(Nc1ccc(OC(F)(F)F)cc1)Nc1ccccc1N1CC2(CCN(Cc3ccccc3)CC2)c2ccccc21", "values": [
      {"measurement": "Ki", "setting": "P2Y purinoceptor 1 [1]", "result": 18.6, "unit": "nM"},
      {"measurement": "solubility", "setting": "[5]", "result": "< 1", "unit": "µg/mL"},
      {"measurement": "logP", "setting": "[3]", "result": "> 6.3"}
    ]},
    {"compound": "CC(C)N1CCC2(CC1)CN(c1ccccc1NC(=O)Nc1ccc(OC(F)(F)F)cc1)c1ccccc12", "values": [
      {"measurement": "solubility", "setting": "[5]", "result": 71, "unit": "µg/mL"},
      {"measurement": "logP", "setting": "[3]", "result": 4.5}
    ]},
    {"compound": "CN1CCN(c2ccccc2NC(=O)Nc2ccc(OC(F)(F)F)cc2)c2ccccc21", "values": [
      {"measurement": "Ki", "setting": "P2Y purinoceptor 1 [1]", "result": 94, "unit": "nM"},
      {"measurement": "logP", "setting": "[3]", "result": 5.5}
    ]},
    {"compound": "O=C(Nc1ccc(OC(F)(F)F)cc1)Nc1ccccc1N1CC2(CCNCC2)c2ccccc21", "values": [
      {"measurement": "Ki", "setting": "P2Y purinoceptor 1 [1]", "result": 4500, "unit": "nM"},
      {"measurement": "solubility", "setting": "[5]", "result": 84, "unit": "µg/mL"},
      {"measurement": "logP", "setting": "[3]", "result": 4.3}
    ]},
    {"compound": "CC1(C)CN(c2ccccc2NC(=O)Nc2ccc(OC(F)(F)F)cc2)c2ccccc2O1", "values": [
      {"measurement": "Ki", "setting": "P2Y purinoceptor 1 [1]", "result": 39, "unit": "nM"}
    ]},
    {"compound": "CC(C)(C)CN1CCC2(CC1)CN(c1ccccc1NC(=O)Nc1ccc(OC(F)(F)F)cc1)c1cccnc12", "values": [
      {"measurement": "solubility", "setting": "[2]", "result": 5, "unit": "µg/mL"},
      {"measurement": "Ki", "setting": "P2Y purinoceptor 1 [1]", "result": 28.7, "unit": "nM"},
      {"measurement": "logP", "setting": "[3]", "result": "> 6.2"}
    ]},
    {"compound": "O=C(Nc1ccc(OC(F)(F)F)cc1)Nc1ccccc1N1CC2(CC2)c2ccccc21", "values": [
      {"measurement": "Ki", "setting": "P2Y purinoceptor 1 [1]", "result": 26, "unit": "nM"}
    ]},
    {"compound": "O=C(Nc1ccc(OC(F)(F)F)cc1)Nc1ccccc1N1CC2(CCN(CCO)CC2)c2ccccc21", "values": [
      {"measurement": "Ki", "setting": "P2Y purinoceptor 1 [1]", "result": 4500, "unit": "nM"},
      {"measurement": "solubility", "setting": "[5]", "result": 123, "unit": "µg/mL"},
      {"measurement": "logP", "setting": "[3]", "result": 4.6}
    ]},
    {"compound": "O=C(Nc1ccc(OC(F)(F)F)cc1)Nc1ccccc1N1CCCCc2ccccc21", "values": [
      {"measurement": "Ki", "setting": "P2Y purinoceptor 1 [1]", "result": 830, "unit": "nM"}
    ]},
    {"compound": "O=C(Nc1ccc(OC(F)(F)F)cc1)Nc1ccccc1N1CC2(CCC2)c2ccccc21", "values": [
      {"measurement": "IC50", "setting": "P2Y purinoceptor 1 [4]", "result": 10.5, "unit": "nM"},
      {"measurement": "Ki", "setting": "P2Y purinoceptor 1 [1]", "result": 7.6, "unit": "nM"}
    ]},
    {"compound": "O=C(O)CN1CCC2(CC1)CN(c1ccccc1NC(=O)Nc1ccc(OC(F)(F)F)cc1)c1ccccc12", "values": [
      {"measurement": "solubility", "setting": "[2]", "result": 5, "unit": "µg/mL"},
      {"measurement": "Ki", "setting": "P2Y purinoceptor 1 [1]", "result": 13500, "unit": "nM"},
      {"measurement": "logP", "setting": "[3]", "result": 4.4}
    ]},
    {"compound": "CC(C)(C)CN1CCC2(CC1)CN(c1ccccc1NC(=O)Nc1ccc(OC(F)(F)F)cc1)c1ccncc12", "values": [
      {"measurement": "IC50", "setting": "P2Y purinoceptor 1 [4]", "result": 346, "unit": "nM"},
      {"measurement": "solubility", "setting": "[2]", "result": 428, "unit": "µg/mL"},
      {"measurement": "Ki", "setting": "P2Y purinoceptor 1 [1]", "result": 617, "unit": "nM"},
      {"measurement": "logP", "setting": "[3]", "result": 5.1}
    ]},
    {"compound": "CC(C)(C)CN1CCC2(CC1)CN(c1ccccc1NC(=O)Nc1ccc(OC(F)(F)F)cc1)c1ncccc12", "values": [
      {"measurement": "IC50", "setting": "P2Y purinoceptor 1 [4]", "result": 503, "unit": "nM"},
      {"measurement": "Ki", "setting": "P2Y purinoceptor 1 [1]", "result": 253, "unit": "nM"}
    ]},
    {"compound": "O=C(Nc1ccc(OC(F)(F)F)cc1)Nc1ccccc1N1CC2(CCCC2)c2ccccc21", "values": [
      {"measurement": "Ki", "setting": "P2Y purinoceptor 1 [1]", "result": 6.6, "unit": "nM"}
    ]},
    {"compound": "CC(C)(C)CN1CCCC2(C1)CN(c1ccccc1NC(=O)Nc1ccc(OC(F)(F)F)cc1)c1ccccc12", "note": "(configuration not stated)", "values": [
      {"measurement": "solubility", "setting": "[2]", "result": "< 1", "unit": "µg/mL"},
      {"measurement": "Ki", "setting": "P2Y purinoceptor 1 [1]", "result": 12.8, "unit": "nM"},
      {"measurement": "logP", "setting": "[3]", "result": "> 6.2"}
    ]}
  ]
}
